Assay results published in ChEMBL document CHEMBL2203015, “Synthesis and biological evaluation of 5-aryloxypyrazole derivatives bearing a rhodanine-3-aromatic acid as potential antimicrobial agents” (Bioorg Med Chem Lett, 2012).
Values after ≈ are worked out from the molar mass of the structure shown. Active and inactive are the calls of the source. The rule behind the calls is not given here.

Legend:
Staphylococcus aureus [1] = assay: Antibacterial activity against quinolone-resistant Staphylococcus aureus CCARM 3519 at 64 ug/ml incubated for 24 hrs serial dilution method; assay type: functional, organism-based
Staphylococcus aureus [2] = assay: Antibacterial activity against quinolone-resistant Staphylococcus aureus CCARM 3505 at 64 ug/ml incubated for 24 hrs serial dilution method; assay type: functional, organism-based
Staphylococcus aureus [3] = assay: Antibacterial activity against multidrug-resistant Staphylococcus aureus CCARM 3506 at 64 ug/ml incubated for 24 hrs serial dilution method; assay type: functional, organism-based
Staphylococcus aureus [4] = assay: Antibacterial activity against multidrug-resistant Staphylococcus aureus CCARM 3167 at 64 ug/ml incubated for 24 hrs serial dilution method; assay type: functional, organism-based
Escherichia coli [5] = assay: Antibacterial activity against Escherichia coli 1356 at 64 ug/ml incubated for 24 hrs serial dilution method; assay type: functional, organism-based
Staphylococcus aureus [6] = assay: Antibacterial activity against Staphylococcus aureus KCTC 503 at 64 ug/ml incubated for 24 hrs serial dilution method; assay type: functional, organism-based
Staphylococcus aureus [7] = assay: Antibacterial activity against Staphylococcus aureus KCTC 209 at 64 ug/ml incubated for 24 hrs serial dilution method; assay type: functional, organism-based
Staphylococcus aureus [8] = assay: Antibacterial activity against Staphylococcus aureus RN 4220 at 64 ug/ml incubated for 24 hrs serial dilution method; assay type: functional, organism-based
Staphylococcus aureus [9] = assay: Potency index, ratio of MIC for norfloxacin to MIC for compound against quinolone-resistant Staphylococcus aureus CCARM 3519 incubated for 24 hrs serial dilution method; assay type: functional
Staphylococcus aureus [10] = assay: Potency index, ratio of MIC for norfloxacin to MIC for compound against quinolone-resistant Staphylococcus aureus CCARM 3505 incubated for 24 hrs serial dilution method; assay type: functional
Staphylococcus aureus [11] = assay: Potency index, ratio of MIC for norfloxacin to MIC for compound against multidrug-resistant Staphylococcus aureus CCARM 3506 incubated for 24 hrs serial dilution method; assay type: functional
Staphylococcus aureus [12] = assay: Potency index, ratio of MIC for norfloxacin to MIC for compound against multidrug-resistant Staphylococcus aureus CCARM 3167 incubated for 24 hrs serial dilution method; assay type: functional
Staphylococcus aureus [13] = assay: Antibacterial activity against quinolone-resistant Staphylococcus aureus CCARM 3519 incubated for 24 hrs serial dilution method; assay type: functional; settings: CCARM 3519, 24 h
Staphylococcus aureus [14] = assay: Antibacterial activity against quinolone-resistant Staphylococcus aureus CCARM 3505 incubated for 24 hrs serial dilution method; assay type: functional; settings: CCARM 3505, 24 h
Staphylococcus aureus [15] = assay: Antibacterial activity against multidrug-resistant Staphylococcus aureus CCARM 3506 incubated for 24 hrs serial dilution method; assay type: functional; settings: CCARM 3506, 24 h
Staphylococcus aureus [16] = assay: Antibacterial activity against multidrug-resistant Staphylococcus aureus CCARM 3167 incubated for 24 hrs serial dilution method; assay type: functional; settings: CCARM 3167, 24 h
Escherichia coli [17] = assay: Antibacterial activity against Escherichia coli 1356 incubated for 24 hrs serial dilution method; assay type: functional; settings: Escherichia coli, 1356, 24 h
Staphylococcus aureus [18] = assay: Antibacterial activity against Staphylococcus aureus KCTC 503 incubated for 24 hrs serial dilution method; assay type: functional; settings: KCTC 503, 24 h
Staphylococcus aureus [19] = assay: Antibacterial activity against Staphylococcus aureus KCTC 209 incubated for 24 hrs serial dilution method; assay type: functional; settings: KCTC 209, 24 h
Staphylococcus aureus [20] = assay: Antibacterial activity against Staphylococcus aureus RN 4220 incubated for 24 hrs serial dilution method; assay type: functional; settings: RN 4220, 24 h

| SMILES | Activity (Staphylococcus aureus [1]) | Activity (Staphylococcus aureus [2]) | Activity (Staphylococcus aureus [3]) | Activity (Staphylococcus aureus [4]) | Activity (Escherichia coli [5]) | Activity (Staphylococcus aureus [6]) | Activity (Staphylococcus aureus [7]) | Activity (Staphylococcus aureus [8]) | Ratio (Staphylococcus aureus [9]) | Ratio (Staphylococcus aureus [10]) | Ratio (Staphylococcus aureus [11]) | Ratio (Staphylococcus aureus [12]) | MIC (Staphylococcus aureus [13]) | MIC (Staphylococcus aureus [14]) | MIC (Staphylococcus aureus [15]) | MIC (Staphylococcus aureus [16]) | MIC (Escherichia coli [17]) | MIC (Staphylococcus aureus [18]) | MIC (Staphylococcus aureus [19]) | MIC (Staphylococcus aureus [20]) |
| --- | --- | --- | --- | --- | --- | --- | --- | --- | --- | --- | --- | --- | --- | --- | --- | --- | --- | --- | --- | --- |
| Cc1nn(-c2ccccc2)c(Oc2ccc(Cl)cc2Cl)c1C=O | inactive | inactive | inactive | inactive | inactive | inactive | inactive | inactive |  |  |  |  |  |  |  |  |  |  |  |  |
| COc1ccc(Oc2c(/C=C3\SC(=S)N([C@@H](Cc4ccccc4)C(=O)O)C3=O)c(C)nn2-c2ccccc2)cc1 |  |  |  |  |  |  |  |  | 4 | 4 | 2 | 2 | 8 µg/mL (≈ 14 µM) | 8 µg/mL (≈ 14 µM) | 4 µg/mL (≈ 7 µM) | 4 µg/mL (≈ 7 µM) | > 64 µg/mL | > 64 µg/mL | > 64 µg/mL | 8 µg/mL (≈ 14 µM) |
| COc1ccc(Oc2c(C=O)c(C)nn2-c2ccccc2)cc1 | inactive | inactive | inactive | inactive | inactive | inactive | inactive | inactive |  |  |  |  |  |  |  |  |  |  |  |  |
| Cc1nn(-c2ccccc2)c(Oc2ccc(F)cc2)c1C=O | inactive | inactive | inactive | inactive | inactive | inactive | inactive | inactive |  |  |  |  |  |  |  |  |  |  |  |  |
| Cc1cccc(Oc2c(C=O)c(C)nn2-c2ccccc2)c1 | inactive | inactive | inactive | inactive | inactive | inactive | inactive | inactive |  |  |  |  |  |  |  |  |  |  |  |  |
| Cc1nn(-c2ccccc2)c(Oc2ccccc2Cl)c1C=O | inactive | inactive | inactive | inactive | inactive | inactive | inactive | inactive |  |  |  |  |  |  |  |  |  |  |  |  |
| Cc1nn(-c2ccccc2)c(Oc2ccc3ccccc3c2)c1/C=C1\SC(=S)N([C@@H](Cc2ccccc2)C(=O)O)C1=O |  |  |  |  |  |  |  |  | 4 | 4 | 2 | 2 | 2 µg/mL (≈ 3.38 µM) | 2 µg/mL (≈ 3.38 µM) | 2 µg/mL (≈ 3.38 µM) | 2 µg/mL (≈ 3.38 µM) | > 64 µg/mL | > 64 µg/mL | > 64 µg/mL | 2 µg/mL (≈ 3.38 µM) |
| Cc1nn(-c2ccccc2)c(Oc2cccc(Cl)c2)c1/C=C1\SC(=S)N([C@@H](Cc2ccccc2)C(=O)O)C1=O |  |  |  |  |  |  |  |  | 4 | 4 | 2 | 2 | 8 µg/mL (≈ 13.9 µM) | 4 µg/mL (≈ 6.94 µM) | 4 µg/mL (≈ 6.94 µM) | 4 µg/mL (≈ 6.94 µM) | > 64 µg/mL | > 64 µg/mL | > 64 µg/mL | 4 µg/mL (≈ 6.94 µM) |
| Cc1nn(-c2ccccc2)c(Oc2ccccc2)c1C=O | inactive | inactive | inactive | inactive | inactive | inactive | inactive | inactive |  |  |  |  |  |  |  |  |  |  |  |  |
| Cc1nn(-c2ccccc2)c(Oc2ccc3ccccc3c2)c1C=O | inactive | inactive | inactive | inactive | inactive | inactive | inactive | inactive |  |  |  |  |  |  |  |  |  |  |  |  |
| Cc1nn(-c2ccccc2)c(Oc2c(Cl)cccc2Cl)c1/C=C1\SC(=S)N([C@@H](Cc2ccccc2)C(=O)O)C1=O |  |  |  |  |  |  |  |  | 4 | 4 | 2 | 2 | 8 µg/mL (≈ 13.1 µM) | 8 µg/mL (≈ 13.1 µM) | 8 µg/mL (≈ 13.1 µM) | 4 µg/mL (≈ 6.55 µM) | > 64 µg/mL | > 64 µg/mL | > 64 µg/mL | 4 µg/mL (≈ 6.55 µM) |
